Test system: shunt pathway
Test: Test Code 036 (C-Shunt inhibitor): lysis of fragile human erythrocytes in autologous serum via shunt pathway activated by cobra venom factor
Format: cell-based
Settings: appropriate dilutions of test compound
Excerpt: An active inhibitor protects C2 from C1 and C4; (ii) Test, Code 035 (c3-C9 inhibitor) -- This test determines the ability of the late components of human complement (C3-C9) to lyse EAC 142 in the presence of appropriate dilutions of the test compound. An active inhibitor protects EAC 142 from lysis by human C3-C9; (iii) Test, Code 036 (C-Shunt inhibitor) -- In this test human erythrocytes rendered fragile are lysed in autologous serum via the shunt pathway activated by cobra venom factor in the presence of appropriate dilutions of the test compound. Inhibition of the shunt pathway results in failure of lysis; (iv) Forssman Vasculitis Test -- Here, the well known complement dependent lesion, Forssman vasculitis, is produced in guinea pigs by intradermal injection of rabbit anti-Forssman antiserum. […]

O=C(N[C@H]1C(OS(=O)(=O)O)O[C@H](COS(=O)(=O)O)[C@@H](OS(=O)(=O)O)[C@@H]1OS(=O)(=O)O)c1cc(C(=O)N[C@H]2C(OS(=O)(=O)O)O[C@H](COS(=O)(=O)O)[C@@H](OS(=O)(=O)O)[C@@H]2OS(=O)(=O)O)cc(C(=O)N[C@H]2C(OS(=O)(=O)O)O[C@H](COS(=O)(=O)O)[C@@H](OS(=O)(=O)O)[C@@H]2OS(=O)(=O)O)c1 (stereo partly drawn) [2,2',2"-[s-Phenenyltris(carbonylimino)]tris-2-deoxy-D-glucopyranose dodecakis (H-sulfate) dodecasalt with trimethylamine]
Shunt Inhibition 036 Wells: +3 Wells

Reference: patent US4120954A, “2,2',2"-[S-Phenenyltris(carbonylimino) ]tris-2-deoxy-D-glucopyranose and salts thereof” (American Cyanamid Company, priority 1977, dated 1978)
